This assay has as its target cloned human glucagon receptor (Homo sapiens, UniProt P47871). The experiment in a line: Glucagon Receptor (hGlucR) Binding Assay.

Chain of cloned human glucagon receptor (P47871 26-477): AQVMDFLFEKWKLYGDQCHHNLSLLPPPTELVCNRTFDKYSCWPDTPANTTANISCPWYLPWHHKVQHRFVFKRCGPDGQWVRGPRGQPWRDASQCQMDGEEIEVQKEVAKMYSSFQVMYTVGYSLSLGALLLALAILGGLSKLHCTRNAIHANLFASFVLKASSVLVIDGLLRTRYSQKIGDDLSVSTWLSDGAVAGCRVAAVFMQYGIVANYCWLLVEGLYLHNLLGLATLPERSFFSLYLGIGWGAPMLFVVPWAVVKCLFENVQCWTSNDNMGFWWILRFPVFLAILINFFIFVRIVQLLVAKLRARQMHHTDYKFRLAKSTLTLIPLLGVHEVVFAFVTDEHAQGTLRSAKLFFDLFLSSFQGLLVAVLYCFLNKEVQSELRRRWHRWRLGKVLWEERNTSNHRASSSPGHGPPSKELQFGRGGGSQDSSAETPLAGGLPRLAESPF
Experimental: This plasmid DNA is transfected into 293 HEK cells and selected with 200 μg/mL Hygromycin.
Crude plasma membranes are prepared using cells from suspension culture. The cells are lysed on ice in hypotonic buffer containing 25 mM Tris HCL, pH 7.5, 1 mM MgCl2, DNAsel, 20 u/mL, and Roche Complete Inhibitors-without EDTA. The cell suspension is homogenized with a glass dounce homogenizer using a Teflon pestle for 25 strokes. The homogenate is centrifuged at 4 degrees C. at 1800×g for 15 mins. The supernate is collected and the pellet is resuspended in hypotonic buffer and rehomogenized. The mixture is centrifuged at 1800×g for 15 mins. The second supernate is combined with the first supernate. The combined supernates are recentrifuged at 1800×g for 15 mins to clarify. The clarified supernate is transferred to high speed tubes and centrifuged at 25000×g for 30 minutes at 4 degrees C. The membrane pellet is resuspended in homogenization buffer and stored as frozen aliquots at −80 degree C. freezer until needed.
The specific activity is 2200 Ci/mmol.
The binding buffer contains 25 mM Hepes, pH 7.4, 2.5 mM CaCl2, 1 mM MgCl2, 0.1% fatty acid free BSA, (ICN), 0.003% tween-20, and Roche Complete Inhibitors without EDTA. […] Test compounds are dissolved in DMSO and serially diluted in DMSO. […] Plates are read with a MicroBeta after 14 hours of settling time at room temp.

In general, Ki refers to a dissociation constant, usually derived from enzyme kinetics or from competition with a known ligand. The molecule `C=CCC(CC=C)(COc1cc(C)c(-c2ccc(C(F)(F)F)cc2)c(C)c1)c1ccc(C(=O)NCCC(=O)O)cc1` displayed a Ki of 87 nM.

For the molecule `Cc1cc(OCC(c2ccc(C(=O)NCCC(=O)O)cc2)C(C)C)cc(C)c1-c1ccc(C(C)(C)C)cc1` (centres unmarked), the Ki worked out at 61 nM.

Source of the values: patent US8076374B2 (Eli Lilly and Company, priority 2005, dated 2011).
